Measurements as given in patent US12187742B2 (XRAD Therapeutics, Inc., priority 2018, dated 2025).
Where a name gives a salt, the structure may show the parent alone.

What was measured:
ATM = ATM (Homo sapiens (Human), UniProt Q13315); test: ATM in Cell Western Assay (pKAP1 in etoposide-treated MCF-7 cells); type: cell-based
In short: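 Cells received compounds in a 10-dose, 3-fold series from a 1 μM final top concentration, then 100 μM etoposide, for 1 hr at 37° C. They were then fixed with paraformaldehyde and permeabilized with 0.1% Triton X-100. After immunostaining, plates were scanned on an infrared imager.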

DNA-PK = DNA-PK (Homo sapiens (Human), UniProt P78527); test: DNA-PK Enzyme-Linked Immunosorbent Assay (phosphorylation of GST-p53 (1-101) peptide); type: biochemical; settings: ELISA
In short: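 ELISA with plate-bound GST-p53 (1-101) phosphorylated by DNA-PK (0.1 μg/mL final) with 20 μM ATP for 1 h at 25 °C. Compounds tested over 10 3-fold doses from 100 nM top final. Phospho-p53 Ser15 detected by antibody, HRP and TMB, absorbance at 450 nm.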

[1] = pKAP1 in etoposide-treated MCF-7 cells
[2] = MCF-7 cells, etoposide 100 μM, 1 hr, pKAP1 readout

Chain of ATM (Q13315 whole entry): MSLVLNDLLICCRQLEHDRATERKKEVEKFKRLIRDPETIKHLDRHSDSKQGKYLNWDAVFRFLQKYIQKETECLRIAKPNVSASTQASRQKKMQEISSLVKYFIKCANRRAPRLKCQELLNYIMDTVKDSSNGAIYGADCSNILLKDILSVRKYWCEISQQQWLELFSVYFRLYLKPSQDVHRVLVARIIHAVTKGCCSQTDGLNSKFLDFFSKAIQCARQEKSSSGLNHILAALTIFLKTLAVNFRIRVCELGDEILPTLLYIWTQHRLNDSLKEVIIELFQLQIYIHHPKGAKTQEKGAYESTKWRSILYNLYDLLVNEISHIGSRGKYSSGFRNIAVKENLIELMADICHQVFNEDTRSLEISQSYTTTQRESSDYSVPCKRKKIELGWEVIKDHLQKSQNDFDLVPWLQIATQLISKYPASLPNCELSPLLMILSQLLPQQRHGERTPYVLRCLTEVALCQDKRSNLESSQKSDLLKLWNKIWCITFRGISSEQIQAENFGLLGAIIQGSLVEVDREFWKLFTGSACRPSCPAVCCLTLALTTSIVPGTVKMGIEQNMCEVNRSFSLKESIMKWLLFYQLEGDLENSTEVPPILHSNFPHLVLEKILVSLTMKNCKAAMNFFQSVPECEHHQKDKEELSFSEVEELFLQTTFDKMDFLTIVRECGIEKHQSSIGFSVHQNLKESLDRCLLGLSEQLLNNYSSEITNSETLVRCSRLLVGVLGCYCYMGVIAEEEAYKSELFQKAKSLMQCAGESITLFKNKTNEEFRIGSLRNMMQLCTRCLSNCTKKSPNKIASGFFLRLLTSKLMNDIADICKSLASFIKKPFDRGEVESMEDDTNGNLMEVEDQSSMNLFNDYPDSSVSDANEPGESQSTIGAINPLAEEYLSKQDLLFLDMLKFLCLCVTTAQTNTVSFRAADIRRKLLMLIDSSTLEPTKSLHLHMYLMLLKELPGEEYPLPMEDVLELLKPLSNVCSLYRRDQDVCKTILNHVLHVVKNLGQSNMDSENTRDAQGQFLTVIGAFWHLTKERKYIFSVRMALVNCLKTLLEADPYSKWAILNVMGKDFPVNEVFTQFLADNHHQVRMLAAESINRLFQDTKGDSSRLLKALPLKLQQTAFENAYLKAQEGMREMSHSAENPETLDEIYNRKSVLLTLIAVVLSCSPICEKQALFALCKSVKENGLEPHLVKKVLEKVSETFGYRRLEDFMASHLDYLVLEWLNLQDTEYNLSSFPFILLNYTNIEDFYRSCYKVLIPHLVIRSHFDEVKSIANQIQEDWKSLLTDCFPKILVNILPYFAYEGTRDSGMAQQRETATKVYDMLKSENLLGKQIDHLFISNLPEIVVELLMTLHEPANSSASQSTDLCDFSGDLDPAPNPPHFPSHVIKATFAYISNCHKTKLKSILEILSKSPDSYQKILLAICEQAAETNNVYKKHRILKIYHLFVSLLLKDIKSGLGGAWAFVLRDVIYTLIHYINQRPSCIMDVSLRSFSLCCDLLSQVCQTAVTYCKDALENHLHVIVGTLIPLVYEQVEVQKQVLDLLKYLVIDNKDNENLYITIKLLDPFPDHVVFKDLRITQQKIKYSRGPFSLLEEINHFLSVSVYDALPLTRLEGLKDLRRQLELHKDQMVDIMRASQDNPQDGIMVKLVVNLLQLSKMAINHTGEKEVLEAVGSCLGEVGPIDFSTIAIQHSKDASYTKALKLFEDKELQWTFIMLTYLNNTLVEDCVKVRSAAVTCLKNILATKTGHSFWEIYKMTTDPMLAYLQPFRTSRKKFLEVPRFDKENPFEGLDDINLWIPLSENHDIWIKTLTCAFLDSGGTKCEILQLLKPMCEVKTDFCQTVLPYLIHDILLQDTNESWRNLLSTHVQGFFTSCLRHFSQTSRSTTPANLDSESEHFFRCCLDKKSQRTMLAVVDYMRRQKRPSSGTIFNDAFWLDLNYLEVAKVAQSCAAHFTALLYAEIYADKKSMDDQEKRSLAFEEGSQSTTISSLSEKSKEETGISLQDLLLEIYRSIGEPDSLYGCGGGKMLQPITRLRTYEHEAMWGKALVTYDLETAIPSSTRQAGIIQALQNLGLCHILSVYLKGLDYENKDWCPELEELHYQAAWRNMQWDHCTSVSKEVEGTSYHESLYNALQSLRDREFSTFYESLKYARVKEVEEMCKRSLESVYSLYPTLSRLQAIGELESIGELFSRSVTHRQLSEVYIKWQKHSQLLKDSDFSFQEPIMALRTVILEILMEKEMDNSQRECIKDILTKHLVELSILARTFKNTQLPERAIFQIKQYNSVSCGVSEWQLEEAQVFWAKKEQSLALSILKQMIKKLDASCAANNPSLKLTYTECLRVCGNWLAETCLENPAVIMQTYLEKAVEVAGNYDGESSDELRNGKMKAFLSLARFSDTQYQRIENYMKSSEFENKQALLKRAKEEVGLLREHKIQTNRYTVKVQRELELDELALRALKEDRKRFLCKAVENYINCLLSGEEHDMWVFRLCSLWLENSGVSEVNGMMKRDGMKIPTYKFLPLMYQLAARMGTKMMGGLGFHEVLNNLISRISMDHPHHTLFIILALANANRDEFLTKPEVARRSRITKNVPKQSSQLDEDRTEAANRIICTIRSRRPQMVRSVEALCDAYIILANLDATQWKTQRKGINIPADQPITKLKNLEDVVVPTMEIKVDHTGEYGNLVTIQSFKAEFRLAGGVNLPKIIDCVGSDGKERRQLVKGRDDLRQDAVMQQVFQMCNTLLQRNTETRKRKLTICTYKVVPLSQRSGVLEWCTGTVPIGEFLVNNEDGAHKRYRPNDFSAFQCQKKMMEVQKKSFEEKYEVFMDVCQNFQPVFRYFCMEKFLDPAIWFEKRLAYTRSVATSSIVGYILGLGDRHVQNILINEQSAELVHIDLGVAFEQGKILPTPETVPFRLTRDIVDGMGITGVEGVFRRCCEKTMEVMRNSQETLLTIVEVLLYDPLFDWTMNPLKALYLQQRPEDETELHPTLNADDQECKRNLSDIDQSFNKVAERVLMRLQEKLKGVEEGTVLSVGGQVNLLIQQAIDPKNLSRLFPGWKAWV

Row | IC50 (ATM; [1]) [nM] | IC50 (DNA-PK; 20 μM ATP) [nM] | IC50 (ATM; [2]) [nM] | IC50 (DNA-PK; ATP 20 μM) [nM] | SMILES
1 | 1 to 100 | 1 to 100 | – | – | CO[C@H]1C[C@]2(C1)C(=O)N(C)c1cnc3cc(F)c(-c4cnc(OCCNC(C)C)c(NS(=O)(=O)N(C)C)c4)cc3c12 [Example 389, cis-8′-{5-[(Dimethylsulfamoyl)amino]-6-{2-[(propan-2-yl)amino]ethoxy}pyridine-3-yl}-7′-fluoro-3-Methoxy-3′-methyl-2′,3′-dihydrospiro[cyclobutane-1,1′-pyrrolo[2,3-c]quinoline]-2′-one]
2 | – | – | 0.5 to 1 | 1 to 100 | CN(C)CCCOc1ccc(-c2ccc3ncc4c(c3c2)C2(CC2)C(=O)N4C)cc1NS(=O)(=O)c1ccccc1 [Example 63, N-(2-(3-(Dimethylamino)propoxy)-5-(3′-methyl-2′-oxo-2′,3′-dihydrospiro[cyclopropane-1,1′-pyrrolo[2,3-c]quinolin]-8′-yl)phenyl)benzenesulfonamide]
3 | – | – | 1 to 100 | 0.5 to 1 | CN(C)CCCOc1ncc(-c2ccc3ncc4c(c3c2)C2(CCC2)C(=O)N4C)cc1NS(=O)(=O)c1cc(F)cc(Cl)c1 [Example 171, 3-Chloro-N-(2-(3-(dimethylamino)propoxy)-5-(3′-methyl-2′-oxo-2′,3′-dihydrospiro[cyclobutane-1,1′-pyrrolo[2,3-c]quinolin]-8′-yl)pyridin-3-yl)-5-fluorobenzenesulfonamide hydrochloride]
4 | – | – | 1 to 100 | 1 to 100 | CN1C(=O)C2(CC2)c2c1cnc1ccc(-c3cnc4ncccc4c3)cc21 [Example 62, 3′-Methyl-8′-(1,8-naphthyridin-3-yl)spiro[cyclopropane-1,1′-pyrrolo[2,3-c]quinolin]-2′(3′-H)-one]
5 | – | – | 1 to 100 | < 0.5 | CC(C#N)c1cccc(S(=O)(=O)Nc2cc(-c3ccc4ncc5c(c4c3)C3(CC3)C(=O)N5C)cnc2OCCCN(C)C)c1 (centres unmarked) [Example 46, 3-(1-Cyanoethyl))-N-((2-(3-(Dimethylamino)propoxy)-5-(3′-methyl-2′-oxo-2′,3′-dihydrospiro [cyclopropane-1,1′-pyrrolo[2,3-c]quinolin]-8′-yl)pyridin-3-yl)benzenesulfonamide]
6 | – | – | 1 to 100 | < 0.5 | CN(C)CCCOc1ncc(-c2ccc3ncc4c(c3c2)C2(CCC2)C(=O)N4C)cc1NS(=O)(=O)c1cscn1 [Example 160, N-(2-(3-(Dimethylamino)propoxy)-5-(3′-methyl-2′-oxo-2′,3′-dihydrospiro[cyclobutane-1,1′-pyrrolo[2,3-c]quinolin]-8′-yl)pyridin-3-yl)thiazole-4-sulfonamide hydrochloride]
7 | – | – | 1 to 100 | < 0.5 | CN(C)CCCOc1ncc(-c2ccc3ncc4c(c3c2)C2(CC2)C(=O)N4C)cc1NS(=O)(=O)c1ccc(F)c(C#N)c1 [Example 111, 3-Cyano-N-(2-(3-(dimethylamino)propoxy)-5-(3′-methyl-2′-oxo-2′,3′-dihydrospiro [cyclopropane-1,1′-pyrrolo[2,3-c]quinolin]-8′-yl)pyridin-3-yl)-4-fluorobenzenesulfonamide]
8 | – | – | 0.5 to 1 | < 0.5 | CN1CCN(c2ncc(-c3ccc4ncc5c(c4c3)C3(CCC3)C(=O)N5C)cc2NS(=O)(=O)C2CC2)CC1 [Example 227, N-(5-(3′-Methyl-2′-oxo-2′,3′-dihydrospiro[cyclobutane-1,1′-pyrrolo[2,3-c]quinolin]-8′-yl)-2-(4-methylpiperazin-1-yl)pyridin-3-yl)cyclopropanesulfonamide hydrochloride]
9 | 1 to 100 | 1 to 100 | – | – | CC(C)NCCOc1ncc(-c2cc3c4c(cnc3cc2F)N(C)C(=O)C42CN(c3ccc(C(F)(F)F)cc3)C2)cc1NS(C)(=O)=O [Example 536, N-(5-(7′-Fluoro-3′-methyl-2′-oxo-1-(4-(trifluoromethyl)phenyl)-2′,3′-dihydrospiro[azetidine-3,1′-pyrrolo[2,3-c]quinolin]-8′-yl)-2-(2-(isopropylamino)ethoxy)pyridin-3-yl)methanesulfonamide hydrochloride]
10 | – | – | 1 to 100 | 1 to 100 | CN1C(=O)C2(CCC2)c2c1cnc1cc(F)c(-c3cnc(N4CC(N(C)C)C4)c(NS(=O)(=O)c4ccc(F)cc4F)c3)cc21 [Example 315, N-(2-(3-(Dimethylamino)azetidin-1-yl)-5-(7′-fluoro-3′-methyl-2′-oxo-2′,3′-dihydrospiro[cyclobulane-1,1′-pyrrolo[2,3-c]quinolin]-8′-yl)pyridin-3-yl)-2,4-difluorobenzenesulfonamide hydrochloride]
11 | 1 to 100 | 1 to 100 | – | – | COc1cccc([C@H]2C[C@]3(C2)C(=O)N(C)c2cnc4cc(F)c(-c5cnc(OCCNC(C)C)c(NS(C)(=O)=O)c5)cc4c23)n1 [Example 428, cis-N-(5-(7′-Fluoro-3-(6-methoxypyridin-2-yl)-3′-methyl-2′-oxo-2′,3′-dihydrospiro[cyclobutane-1,1′-pyrrolo[2,3-c]quinolin]-8′-yl)-2-(2-(isopropylamino)ethoxy)pyridin-3-yl)methanesulfonamide]
12 | 0.5 to 1 | 1 to 100 | – | – | CN1C(=O)C2(CCC2)c2c1cnc1cc(F)c(-c3cnc(N4CCC(N5CCCCC5)CC4)c(NS(C)(=O)=O)c3)cc21 [Example 358, N-(2-([1,4-Bipiperidin]-1′-yl)-5-(7′-fluoro-3′-methyl-2′-oxo-2′,3′-dihydrospiro[cyclobutane-1,1′-pyrrolo[2,3-c]quinolin]-8′-yl)pyridin-3-yl)methanesulfonamide hydrochloride]
13 | – | – | 1 to 100 | < 0.5 | COc1ncc(-c2ccc3ncc4c(c3c2)C2(COC2)C(=O)N4C)cc1NS(=O)(=O)c1ccccc1 [Example 8, N-(2-Methoxy-5-(3′-methyl-2′-oxo-2′,3′-dihydrospiro[oxetane-3,1′-pyrrolo[2,3-c]quinolin]-8′-yl)pyridin-3-yl)benzenesulfonamide]
14 | 1 to 100 | 1 to 100 | – | – | CN1C(=O)C2(CCC2)c2c1cnc1ccc(-c3cnc(N4CCC(N(C)C)C4)c(NS(C)(=O)=O)c3)cc21 (racemic) [Example 351, (rac)-N-(2-(3-(Dimethylamino)pyrrolidin-1-yl)-5-(3′-methyl-2′-oxo-2′,3′-dihydrospiro[cyclobutane-1,1′-pyrrolo[2,3-c]quinolin]-8′-yl)pyridin-3-yl)methanesulfonamide]
15 | – | – | 1 to 100 | 1 to 100 | CN(C)CCCOc1ncc(-c2ccc3ncc4c(c3c2)C2(CC2)C(=O)N4C)cc1NS(=O)(=O)C1CCC1 [Example 69, N-(2-(3-(Dimethylamino)propoxy)-5-(3′-methyl-2′-oxo-2′,3′-dihydrospiro[cyclopropane-1,1′-pyrrolo[2,3-c]quinolin]-8′-yl)pyridin-3-yl)cyclobutanesulfonamide]
16 | – | – | 1 to 100 | 1 to 100 | CC1CN(S(=O)(=O)Nc2cc(-c3ccc4ncc5c(c4c3)C3(CCC3)C(=O)N5C)cnc2OCCCN(C)C)CC(C)O1 (centres unmarked) [Example 184, N-(2-(3-(Dimethylamino)propoxy)-5-(3′-methyl-2′-oxo-2′,3′-dihydrospiro[cyclobutane-1,1′-pyrrolo[2,3-c]quinolin]-8′-yl)pyridin-3-yl)-2,6-dimethylmorpholine-4-sulfonamide]
17 | > 100 | 1 to 100 | – | – | COc1cc([C@H]2C[C@@]3(C2)C(=O)N(C)c2cnc4cc(F)c(-c5cnc(OCCNC(C)C)c(NS(C)(=O)=O)c5)cc4c23)ccn1 [Example 433, trans-N-(5-(7′-Fluoro-3-(2-methoxypyridin-4-yl)-3′-methyl-2′-oxo-2′,3′-dihydrospiro[cyclobutane-1,1′-pyrrolo[2,3-c]quinolin]-8′-yl)-2-(2-(isopropylamino)ethoxy)pyridin-3-yl)methanesulfonamide]
18 | 1 to 100 | 0.5 to 1 | – | – | CC(C)NCCOc1ncc(-c2cc3c4c(cnc3cc2F)N(C)C(=O)C42CN(C3CCCC3)C2)cc1NS(C)(=O)=O [Example 498, N-(5-(1-Cyclopentyl-7′-fluoro-3′-methyl-2′-oxo-2′,3′-dihydrospiro[azetidine-3,1′-pyrrolo[2,3-c]quinolin]-8′-yl)-2-(2-(isopropylamino)ethoxy)pyridin-3-yl)methanesulfonamide]
19 | – | – | 1 to 100 | 1 to 100 | CN1C(=O)C2(CC2)c2c1cnc1ccc(-c3cnc(OCCC4CCCCN4C)c(NS(=O)(=O)c4ccccc4)c3)cc21 (centres unmarked) [Example 81, N-(5-(3′-Methyl-2′-oxo-2′,3′-dihydrospiro [cyclopropane-1,1′-pyrrolo[2,3-c]quinolin]-8′-yl)-2-(2-(1-methylpiperidin-2-yl)ethoxy)pyridin-3-yl)benzenesulfonamide]
20 | – | – | 1 to 100 | 1 to 100 | CN1C(=O)C2(CC2)c2c1cnc1ccc(-c3cnc(OCCC4CCCCN4C)c(NS(=O)(=O)C4CC4)c3)cc21 (centres unmarked) [Example 80, N-(5-(3′-Methyl-2′-oxo-2′,3′-dihydrospiro [cyclopropane-1,1′-pyrrolo[2,3-c]quinolin]-8′-yl)-2-(2-(1-methylpiperidin-2-yl)ethoxy)pyridin-3-yl)cyclopropanesulfonamide]
21 | – | – | 1 to 100 | 1 to 100 | CN1C(=O)C2(CCC2)c2c1cnc1ccc(-c3cnc(OCCCN4CCCC4)c(NS(=O)(=O)C4CC4)c3)cc21 [Example 235, N-(5-(3′-Methyl-2′-oxo-2′,3′-dihydrospiro[cyclobutane-1,1′-pyrrolo[2,3-c]quinolin]-8′-yl)-2-(3-(pyrrolidin-1-yl)propoxy)pyridin-3-yl)cyclopropanesulfonamide]

Row | SMILES | IC50 (ATM; [1]) [nM] | IC50 (DNA-PK; 20 μM ATP) [nM] | IC50 (ATM; [2]) [nM] | IC50 (DNA-PK; ATP 20 μM) [nM]
22 | CNCCCCOc1ncc(-c2ccc3ncc4c(c3c2)C2(CC2)C(=O)N4C)cc1NS(=O)(=O)c1ccccc1 [Example 75, N-(5-(3-Methyl-2′-oxo-2′,3′-dihydrospiro [cyclopropane-1,1′-pyrrolo[2,3-c]quinolin]-8′-yl)-2-(4-(methylamino)butoxy)pyridin-3-yl) benzenesulfonamide] | – | – | 1 to 100 | 1 to 100
